Test results: patent US12415799B2, “Indazole-fused cyclic compound” (Zhejiang Yangli Pharmaceutical Technology Co., Ltd., priority 2020, dated 2025)
pIC50: −log10 of the molar value. Like-named read-outs stand apart in the source and are kept apart here.

Assays:
[1] = molecular target: ERα (Homo sapiens (Human), UniProt P03372); assay: Degradation experiment of MCF-7 ERα (ELISA); format: cell-based; conditions: MCF-7 cell line, 4 hours incubation, total ERα ELISA; read-out: IC50 value of promoting ERα degradation
ERα, sequence (P03372 whole entry): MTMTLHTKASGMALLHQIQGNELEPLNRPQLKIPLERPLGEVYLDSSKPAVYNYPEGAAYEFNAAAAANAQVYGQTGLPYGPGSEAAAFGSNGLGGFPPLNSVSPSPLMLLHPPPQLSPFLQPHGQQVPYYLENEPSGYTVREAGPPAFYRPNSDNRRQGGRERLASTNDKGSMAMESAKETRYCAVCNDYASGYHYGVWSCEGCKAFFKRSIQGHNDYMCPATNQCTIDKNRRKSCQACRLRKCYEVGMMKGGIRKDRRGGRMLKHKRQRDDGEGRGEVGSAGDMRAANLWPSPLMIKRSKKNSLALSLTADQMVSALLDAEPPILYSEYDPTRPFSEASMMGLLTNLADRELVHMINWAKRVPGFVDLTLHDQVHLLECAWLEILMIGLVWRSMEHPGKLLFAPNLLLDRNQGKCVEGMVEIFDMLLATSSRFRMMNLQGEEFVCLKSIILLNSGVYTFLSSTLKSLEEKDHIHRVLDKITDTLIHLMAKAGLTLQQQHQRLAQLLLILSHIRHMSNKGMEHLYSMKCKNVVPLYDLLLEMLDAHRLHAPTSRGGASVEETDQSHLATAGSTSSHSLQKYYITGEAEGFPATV
Description: (2) Degradation Experiment of MCF-7 ERα Experimental Materials:
Phenol red-free MEM culture medium was purchased from Wisent, fetal bovine serum was purchased from Biosera, and Human Total ERα/NR3A1 ELISA kit was purchased from R&D. MCF-7 cell line was purchased from Cell Bank of Type Culture Collection of Chinese Academy of Sciences. Nivo5 multi-label analyzer (PerkinElmer).
MCF-7 cells were resuspended in culture medium (phenol red-free MEM+5% charcoal/dextran-treated fetal bovine serum+1% penicillin-streptomycin double antibody solution), and seeded in a clear 96-well cell culture plate with 80 μL per well containing 20,000 cells, and the cell culture plate was incubated overnight in a carbon dioxide incubator;
ELISA plate was coated with strips, human total estrogen receptor a capture antibody was diluted with 1×PBS with a final concentration of 1 μg/mL, and 100 μL of mixture was added to each well, and incubated overnight at 25° C.
Cell administration: The test compound was diluted to the 8th concentration with a multi-channel pipette, and the compound concentration was 20 μM and 4 μM, and then diluted to the 8th concentration of 0.256 nM in turn, and a double-duplicate experiment was set-up. 78 μL of culture medium was added to the middle plate, then 2 μL of gradient dilution compound per well was transferred to the middle plate according to the corresponding position, and 20 μL of the mixture per well was mixed evenly and transferred to the cell plate, and the final concentration of DMSO was 0.5%, and the mixture was incubated at 37° C. for 4 hours;
preparation of standard curve solution: 110 ng/mL of standard curve storage solution was 6-fold diluted with buffer (1×PBS containing 1 mM EDTA, 0.5% Triton X-100, pH 7.2 to 7.4) to obtain a solution with a concentration of 18.3 ng/mL, and then 91.5-fold diluted with buffer (1×PBS containing 1 mM EDTA, 0.5% Triton X-100, 1 M urea, pH 7.2 to 7.4) to obtain a solution with a concentration of 0.2 ng/mL, and 8-point gradient dilution was performed using buffer (1×PBS containing 1 mM EDTA, 0.5% Triton X-100, 1 M urea, pH 7.2 to 7.4) with a final concentration of […].
1×PBS was pre-cooled, and after the incubation of the compound, the supernatant was removed, and then the plate was washed with 250 μL of pre-cooled 1×PBS per well, then 30 µL of cell lysate per well (1×PBS containing 1 mM EDTA, 0.5% Triton X-100, 6 M urea, 1 mM active sodium orthovanadate, 2.5 mM sodium pyrophosphate, lx protease inhibitor, pH 7.2 to 7.4) was added, and lysed on ice for 15 minutes;
after cell was lysed in the cell plate, the cell lysate was 6-fold diluted with 150 μL of buffer (1×PBS containing 1 mM EDTA, 0.5% Triton X-100, pH 7.2 to 7.4) per well, and the mixture was mixed evenly by blowing with a multi-channel pipette, and 100 μL of solution per well was transferred to the ELISA plate;
the human total estrogen receptor a detection antibody stock solution (14.4 μg/mL) was 36-fold diluted with buffer (1×PBS containing 1% bovine serum albumin), and the final concentration of the detection antibody was 400 ng/mL, and 100 μL of the solution per well was transferred to the ELISA plate and incubated at 25° C. for 2 hours;
Data analysis: A, B, C and D in the four-parameter equation y=(A−D)/[1+(x/C)^B]+D were calculated according to the original data of the standard curve, wherein, y was the original OD450 value, x was the concentration of the corresponding point of the standard curve. According to the four-parameter equation and the OD450 reading of the original data of the sample, the concentration of ERα at the corresponding point was calculated. The equation (Sample−Min)/(Max−Min)×100% was used to convert the original data into inhibition rate, and the IC50 value could be obtained by curve fitting with four parameters (obtained by “log (inhibitor) vs. response—variable slope” mode in GraphPad Prism).
Max wells: Positive control wells reading at 100 nM Fulvestrant-treated cell wells […]

[2] = test system: MCF-7 cells; assay: MCF-7 cell proliferation inhibition experiment; format: cell-based; conditions: Homo sapiens, MCF7, 144 h, 6 days incubation, CellTiter-Glo, read-out: Anti-cell proliferation activity of MCF-7
Description: (1) MCF-7 Cell Proliferation Inhibition Experiment:
EMEM culture medium was purchased from Wisent, and fetal bovine serum was purchased from Biosera, Promega CellTiter-Glo reagent. MCF-7 cell line was purchased from Cell Bank of Type Culture Collection of Chinese Academy of Sciences. Nivo5 multi-label analyzer (PerkinElmer).
MCF-7 cells were seeded in a white 384-well plate with 600 cells per well in every […] of the cell suspension. The cell plate was placed in a carbon dioxide incubator and cultured overnight.
The test compound was diluted to the 10th concentration with a multi-channel pipette, and the compound concentration was 1 mM, 400 μM, and 80 μM, and then diluted to the 10th concentration of 1 nM in turn, and a double-duplicate experiment was set-up. 47.5 μL of culture medium was added to the middle plate, then 2.5 μL of gradient dilution compound per well was transferred to the middle plate according to the corresponding position, and 5 μL of the mixture per well was mixed evenly and transferred to the cell plate. The cell plate was placed in a carbon dioxide incubator and cultured for 6 days.
After 6 days of co-incubation of the compound, the culture medium was removed by centrifugation, and 25 μL of Promega CellTiter-Glo reagent was added to each well of the cell plate, and incubated at room temperature for 10 minutes to stabilize the luminescence signal. PerkinElmer Nivo multi-marker analyzer reading was used. In the experiment, the reading of 2 μM positive reference compound H3B-6545(US20160347717A1) was used as a positive control to participate in data calculation.
The equation % Inhibition=((RFUCmpd−AVER(RFUNeg.ctrl))/((AVER(RFUPos.Ctrl)−AVER(RFUNeg.ctrl))×100% was used to convert the original data into inhibition rate, and the compound curve was fitted by log(inhibitor)vs. response-Variable slope of Graphpad Prism 5. The IC50 value was calculated by the software through the formula Y=Bottom+(Top−Bottom)/(1+10^((Log IC50−X)*HillSlope)).

[3] = molecular target: CYP1A2 (Homo sapiens (Human), UniProt P05177); format: in vitro ADME; conditions: microsomes
CYP1A2, sequence (P05177 whole entry): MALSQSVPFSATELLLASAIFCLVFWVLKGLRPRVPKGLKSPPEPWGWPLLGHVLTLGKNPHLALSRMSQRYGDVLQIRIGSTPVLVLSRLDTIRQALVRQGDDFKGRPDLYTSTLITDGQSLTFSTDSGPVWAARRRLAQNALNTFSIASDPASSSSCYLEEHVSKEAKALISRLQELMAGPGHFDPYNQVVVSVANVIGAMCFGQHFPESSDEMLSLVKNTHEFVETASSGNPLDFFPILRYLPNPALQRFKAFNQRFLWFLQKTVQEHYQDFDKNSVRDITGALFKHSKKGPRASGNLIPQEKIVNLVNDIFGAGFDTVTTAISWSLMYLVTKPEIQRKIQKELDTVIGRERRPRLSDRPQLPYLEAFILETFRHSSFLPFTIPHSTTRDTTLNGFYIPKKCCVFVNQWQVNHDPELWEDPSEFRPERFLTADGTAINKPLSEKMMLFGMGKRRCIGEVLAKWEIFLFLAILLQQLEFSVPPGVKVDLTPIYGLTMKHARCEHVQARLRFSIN
Description: (§1) Experimental purposes: To test the inhibitory effect of test compound on the activity of human liver microsomal cytochrome P450 isoenzymes (CYP1A2 and CYP3A4) (Corning, Co., Ltd.).
(§2) Experimental operation: Firstly, the test compound (10 mM) was subjected to gradient dilution to prepare a working solution (100×final concentration), and the concentration of the working solution was: 5, 1.5, 0.5, 0.15, 0.05, 0.015 and 0.005 mM, respectively, and the working solution of each positive inhibitor of P450 isoenzyme (CYP1A2 and CYP3A4) and its specific substrate mixture (5 in 1) were prepared; and then the human liver microsomes frozen in the −80° C. refrigerator were thawed on ice, and all the human liver microsomes were dissolved, diluted with PB, and a certain concentration of working solution (0.253 mg/mL) was prepared; 20 μL of substrate mixture was added to the reaction plate (20 μL of PB was added to the blank well), while 158 μL of human liver microsomal working solution was added to the reaction plate, and the reaction plate was placed on ice for later use; at this time, 2 μL of various concentrations of the test compound (N=1) and specific inhibitor (N=2) were added to the corresponding well, and the corresponding organic solvent was added to the non-inhibitor (test compound or positive inhibitor) group as a control group sample (a ratio of DMSO:MeOH in the test compound control sample was 1:1, a ratio of DMSO:MeOH in the positive control sample was 1:9); after pre-incubation in a water bath at 37° C. for 10 min, 20 μL of coenzyme factor (NADPH) solution was added to the reaction plate, and incubated in a water bath at 37° C. for 10 min; and 400 μL of cold acetonitrile solution (internal standard was 200 ng/mL tolbutamide and labetalol) was added to terminate the reaction; the reaction plate was placed on a shaker and shaked for 10 minutes; and then centrifuged at 4,000 rpm for 20 minutes; 200 μL of the supernatant was taken and added to 100 μL of water for sample dilution; finally the plate was sealed, shaked and shaked well, for LC/MS/MS detection.

[4] = molecular target: CYP3A4 (Homo sapiens (Human), UniProt P08684); assay: Cytochrome P450 isoenzyme inhibition, human liver microsomes; format: in vitro ADME
CYP3A4, sequence (P08684 whole entry): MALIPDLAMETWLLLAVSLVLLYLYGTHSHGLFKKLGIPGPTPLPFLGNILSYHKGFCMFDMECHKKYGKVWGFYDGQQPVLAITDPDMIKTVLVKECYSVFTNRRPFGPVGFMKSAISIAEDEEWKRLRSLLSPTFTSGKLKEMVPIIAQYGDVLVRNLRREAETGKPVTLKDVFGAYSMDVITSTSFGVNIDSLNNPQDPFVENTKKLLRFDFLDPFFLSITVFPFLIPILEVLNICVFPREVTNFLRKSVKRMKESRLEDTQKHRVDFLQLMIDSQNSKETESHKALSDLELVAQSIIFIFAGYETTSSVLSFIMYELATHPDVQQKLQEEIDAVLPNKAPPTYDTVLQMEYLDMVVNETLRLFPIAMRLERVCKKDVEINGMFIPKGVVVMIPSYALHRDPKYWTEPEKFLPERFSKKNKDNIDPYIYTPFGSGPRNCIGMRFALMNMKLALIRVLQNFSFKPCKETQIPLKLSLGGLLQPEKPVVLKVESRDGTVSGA
Description: as §1, §2

[5] = in vivo, cited from earlier work
[6] = test system: breast cancer; conditions: intramuscular injection; cited from earlier work
[7] = test system: rat uterus; assay: Uterine wet weight inhibition experiment in rat cubs; format: in vivo; conditions: 18-day-old female rat pups, oral, three consecutive days; compounds 25 mg/kg, Ethinylestradiol 0.1 mg/kg
Description: The purpose of this experiment was to evaluate the effect of the compound of the present disclosure on uterine growth inhibition in 18 to 21-day-old female rat pups (provided by Beijing Vital River Laboratory Animal Technology Co., Ltd.). In this experiment, 18-day-old female rat pups were orally administered the compound of the present disclosure at a dose of 25 mg/kg for three consecutive days, and the control group was orally administered 0.1 mg/kg of Ethinylestradiol for three consecutive days, and the blank group was not given any drug except the corresponding solvent. Three days after the administration, the rats were sacrificed, and the weight of the rat uterus was weighed to observe the effect of the test drug on the growth inhibition of the rat uterus. Inhibition rate=100×[(VehicleEE−Cpd)/(VehicleEE−Vehicle)], VehicleEE was the wet weight of the rat uterus in the control group (administered 0.1 mg/kg of Ethinylestradiol orally); Cpd was the wet weight of the rat uterus in administration group; Vehicle was the wet weight of the rat uterus in the blank group.

| Structure (SMILES) | DC50 [1] | pIC50 [2] | pIC50 ([3]; human, 10 min) | pIC50 [4] | other results |
| --- | --- | --- | --- | --- | --- |
| OCCCC1=C(c2ccc(OC3CN(CCCF)C3)cc2)c2ccc3[nH]ncc3c2CCC1 [Formate of 1] | 0.25 nM | 9.38 | – | – | – |
| FCCCN1CC(Nc2ccc(C3=C(CC(F)(F)F)CCCc4c3ccc3[nH]ncc43)nc2)C1 [Compound 6] | 0.42 nM | 9.51 | – | – | – |
| FCCCN1CC(Nc2cnc(C3=C(CC(F)(F)F)CCOc4c3ccc3[nH]ncc43)cn2)C1 [Compound 3] | 0.45 nM | 8.86 | < 4.30 | 4.87 | – |
| C[C@]12CC[C@@H]3c4ccc(O)cc4C[C@@H](CCCCCCCCC[S+]([O-])CCCC(F)(F)C(F)(F)F)[C@H]3[C@@H]1CC[C@@H]2O (some centres unmarked) [fulvestrant, Fulvestrant] | – | – | – | – | oral bioavailability ([5]; po): close to zero; blood clearance rate [5]: high; breast cancer patients showing clinical response [6]: about 50% |
| C#C[C@]1(O)CC[C@H]2[C@@H]3CCc4cc(O)ccc4[C@H]3CC[C@@]21C [Ethinylestradiol, reference compound] | – | – | – | – | Inhibition rate [7]: 0%; Ratio of uterine wet weight/rat body weight [7]: 2.45 mg/g; Uterine wet weight [7]: 132.2 mg |
| N#Cc1cc(C2=C(CC(F)(F)F)CCCc3c2ccc2[nH]nc(F)c32)ncc1NC1CN(CCCF)C1 [Compound 10] | – | – | 4.32 | 4.51 | – |
| FCCCN1CC(Nc2cnc(C3=C(CC(F)(F)F)CCCc4c3ccc3[nH]ncc43)nc2)C1 [Compound 7] | 0.4 nM | – | – | – | – |
| FCCCN1CC(Nc2cnc(C3=C(CC(F)(F)F)CCCc4c3ccc3[nH]ncc43)cn2)C1 [Compound 5] | 0.017 nM | 9.72 | – | – | – |
| FCCCN1CC(Nc2ncc(C3=C(CC(F)(F)F)CCCc4c3ccc3[nH]ncc43)cn2)C1 [Compound 4] | 0.17 nM | – | < 4.30 | 4.95 | – |
| FCCCN1CC(Nc2cnc(C3=C(CC(F)(F)F)CCCc4c3ccc3[nH]nc(F)c43)cn2)C1 [Compound 8] | 0.37 nM | 9.15 | – | 4.38 | pIC50 [3]: < 4.30 |
